These results are taken from ChEMBL document CHEMBL1143729, “Biotransformation of polymethoxylated flavonoids: access to their 4'-O-demethylated metabolites” (J Nat Prod, 2007).

Structures are written as SMILES.

The experiment deals with Aspergillus niger. Put plainly: Inhibition of CYP450-mediated tangeretin demethylation in Aspergillus niger ATCC 9142 assessed as relative activity at 0.5 mM.
For `Clc1ccc(COC(Cn2ccnc2)c2ccc(Cl)cc2Cl)c(Cl)c1` (centres undefined), the relative activity was determined as 10%.
As to `CC(C)(C(=O)c1cccnc1)c1cccnc1`, the relative activity was 40%.
The result for `CC1=CC(=O)c2ccccc2C1=O` reads 0%; that for `CCCC(C(=O)OCCN(CC)CC)(c1ccccc1)c1ccccc1`, 0%.
